{
  "source": "patent US20090274622A1",
  "about": "“NECROSIS AVID TRACER AGENT” (K.U. Leuven Research & Development, priority 2003, published 2009)",
  "key": {"HDL and LDL": {"system": "HDL and LDL", "settings": "reference 37; cited from earlier work"}, "[1]": {"system": "occlusive myocardial infarction", "experiment": "Ex vivo autoradiography of rabbit heart slices"}, "[2]": {"system": "occlusive myocardial infarction", "experiment": "In vivo SPECT imaging of rabbit with myocardial infarction", "settings": "24 and 48 hours post injection"}, "[3]": {"system": "reperfused hepatic infarction", "experiment": "Ex vivo autoradiography of rat liver slices with TTC and H&E staining"}, "[4]": {"system": "occlusive myocardial infarction", "experiment": "Tissue radioactivity counting of normal and infarcted rabbit myocardium", "settings": "gamma counting, 48 h"}, "[5]": {"system": "reperfused hepatic infarction", "experiment": "Biodistribution of MIH in rats with reperfused hepatic infarction (tissue radioactivity counting)", "settings": "for Biodistribution, Blood / Biodistribution, Heart / Biodistribution, Kidneys / Biodistribution, Large intestine / Biodistribution, Lungs / Biodistribution, Muscle / Biodistribution, Necrotic liver / Biodistribution, Normal liver / Biodistribution, Small intestine / Biodistribution, Spleen / Biodistribution, Stomach / Biodistribution, Thyroid / Necrotic liver/Blood ratio / Necrotic liver/Intact liver ratio / Necrotic liver/Muscle ratio: i.v., mean ± SD, n = 3"}, "[6]": {"settings": "quantification of autoradiography image"}},
  "data": [
    {"compound": "Cc1cc(O)c2c(=O)c3c(O)cc(O)c4c5c(O)c([123I])c(O)c6c(=O)c7c(O)cc(C)c8c1c2c(c34)c(c78)c65", "note": "[MIH, mono-[^123I]iodohypericin]", "values": [
      {"measurement": "binding to HDL and LDL in vivo", "setting": "HDL and LDL", "value": "bind extensively to HDL and LDL"},
      {"measurement": "autoradiography distribution of radioactive uptake in heart slice", "setting": "[1]", "value": "radioactive uptake appears only in the infarcted region"},
      {"measurement": "uptake ratio infarcted tissue limited to subendocardial area vs. control tissue", "setting": "[1]; [6]", "value": 16},
      {"measurement": "uptake ratio overall infarcted myocardium vs. intact myocardium", "setting": "[1]; [6]", "value": "about 6"},
      {"measurement": "whole body SPECT, coronal section", "setting": "[2]", "value": "only one hot spot in the anatomical area of the heart"},
      {"measurement": "autoradiography uptake in intact liver", "setting": "[3]; 30 min p.i.", "value": "Pronounced radioactivity uptake"},
      {"measurement": "autoradiography uptake in necrotic regions of infarcted liver lobe", "setting": "[3]; 30 min p.i.", "value": "low uptake of MIH"},
      {"measurement": "autoradiography uptake in intact liver", "setting": "[3]; 24 h p.i.", "value": "activity from the intact liver has cleared"},
      {"measurement": "autoradiography uptake in necrotic regions of infarcted liver tissue", "setting": "[3]; 24 h p.i.", "value": "relatively high uptake of MIH"},
      {"measurement": "radiotracer concentration in infarcted tissue vs healthy myocardium", "setting": "[4]", "value": 7, "unit": "fold"},
      {"measurement": "uptake in the infarcted region of myocardium", "setting": "[4]", "value": "0.36 % of ID/g"},
      {"measurement": "uptake in the normal region of myocardium", "setting": "[4]", "value": "0.05 % of ID/g"},
      {"measurement": "concentration ratio necrotic liver vs. blood", "setting": "[5]; 24 hours p.i.", "value": 17},
      {"measurement": "concentration ratio necrotic liver vs. muscle", "setting": "[5]; 24 hours p.i.", "value": 57},
      {"measurement": "concentration in necrotic liver tissue relative to intact liver tissue", "setting": "[5]; 24 h p.i.", "value": 3.2, "unit": "times"},
      {"measurement": "in vivo deiodination (thyroid concentration)", "setting": "[5]; 24 h p.i.", "value": "in vivo deiodination of MIH occurs"},
      {"measurement": "Biodistribution, Blood", "setting": "[5]; 30 min p.i.", "value": "1.34 ± 0.38 % of injected dose per gram tissue"},
      {"measurement": "Biodistribution, Heart", "setting": "[5]; 30 min p.i.", "value": "0.47 ± 0.13 % of injected dose per gram tissue"},
      {"measurement": "Biodistribution, Kidneys", "setting": "[5]; 30 min p.i.", "value": "0.35 ± 0.05 % of injected dose per gram tissue"},
      {"measurement": "Biodistribution, Large intestine", "setting": "[5]; 30 min p.i.", "value": "0.03 ± 0.01 % of injected dose per gram tissue"},
      {"measurement": "Biodistribution, Lungs", "setting": "[5]; 30 min p.i.", "value": "1.60 ± 0.58 % of injected dose per gram tissue"},
      {"measurement": "Biodistribution, Muscle", "setting": "[5]; 30 min p.i.", "value": "0.03 ± 0.01 % of injected dose per gram tissue"},
      {"measurement": "Biodistribution, Necrotic liver", "setting": "[5]; 30 min p.i.", "value": "1.91 ± 0.46 % of injected dose per gram tissue"},
      {"measurement": "Biodistribution, Normal liver", "setting": "[5]; 30 min p.i.", "value": "3.80 ± 1.39 % of injected dose per gram tissue"},
      {"measurement": "Biodistribution, Small intestine", "setting": "[5]; 30 min p.i.", "value": "0.09 ± 0.03 % of injected dose per gram tissue"},
      {"measurement": "Biodistribution, Spleen", "setting": "[5]; 30 min p.i.", "value": "2.19 ± 0.18 % of injected dose per gram tissue"},
      {"measurement": "Biodistribution, Stomach", "setting": "[5]; 30 min p.i.", "value": "0.03 ± 0.00 % of injected dose per gram tissue"},
      {"measurement": "Biodistribution, Thyroid", "setting": "[5]; 30 min p.i.", "value": "0.16 ± 0.02 % of injected dose per gram tissue"},
      {"measurement": "Necrotic liver/Blood ratio", "setting": "[5]; 30 min p.i.", "value": "1.44 ± 0.10"},
      {"measurement": "Necrotic liver/Intact liver ratio", "setting": "[5]; 30 min p.i.", "value": "0.57 ± 0.28"},
      {"measurement": "Necrotic liver/Muscle ratio", "setting": "[5]; 30 min p.i.", "value": "75.80 ± 16.34"},
      {"measurement": "Biodistribution, Blood", "setting": "[5]; 24 h p.i.", "value": "0.10 ± 0.01 % of injected dose per gram tissue"},
      {"measurement": "Biodistribution, Heart", "setting": "[5]; 24 h p.i.", "value": "0.24 ± 0.08 % of injected dose per gram tissue"},
      {"measurement": "Biodistribution, Kidneys", "setting": "[5]; 24 h p.i.", "value": "0.18 ± 0.02 % of injected dose per gram tissue"},
      {"measurement": "Biodistribution, Large intestine", "setting": "[5]; 24 h p.i.", "value": "1.47 ± 0.13 % of injected dose per gram tissue"},
      {"measurement": "Biodistribution, Lungs", "setting": "[5]; 24 h p.i.", "value": "1.06 ± 0.30 % of injected dose per gram tissue"},
      {"measurement": "Biodistribution, Muscle", "setting": "[5]; 24 h p.i.", "value": "0.03 ± 0.00 % of injected dose per gram tissue"},
      {"measurement": "Biodistribution, Necrotic liver", "setting": "[5]; 24 h p.i.", "value": "1.71 ± 0.32 % of injected dose per gram tissue"},
      {"measurement": "Biodistribution, Normal liver", "setting": "[5]; 24 h p.i.", "value": "0.55 ± 0.15 % of injected dose per gram tissue"},
      {"measurement": "Biodistribution, Small intestine", "setting": "[5]; 24 h p.i.", "value": "0.27 ± 0.02 % of injected dose per gram tissue"},
      {"measurement": "Biodistribution, Spleen", "setting": "[5]; 24 h p.i.", "value": "0.43 ± 0.07 % of injected dose per gram tissue"},
      {"measurement": "Biodistribution, Stomach", "setting": "[5]; 24 h p.i.", "value": "0.37 ± 0.13 % of injected dose per gram tissue"},
      {"measurement": "Biodistribution, Thyroid", "setting": "[5]; 24 h p.i.", "value": "9.25 ± 3.25 % of injected dose per gram tissue"},
      {"measurement": "Necrotic liver/Blood ratio", "setting": "[5]; 24 h p.i.", "value": "17.40 ± 1.19"},
      {"measurement": "Necrotic liver/Intact liver ratio", "setting": "[5]; 24 h p.i.", "value": "3.18 ± 0.49"},
      {"measurement": "Necrotic liver/Muscle ratio", "setting": "[5]; 24 h p.i.", "value": "57.09 ± 4.24"}
    ]},
    {"compound": "Cc1cc(O)c2c(=O)c3c(O)cc(O)c4c5c(O)cc(O)c6c(=O)c7c(O)cc(C)c8c1c2c(c34)c(c78)c65", "note": "[hypericine, hypericin, reference compound]", "values": [
      {"measurement": "binding to HDL and LDL in vivo", "setting": "HDL and LDL", "value": "bind extensively to HDL and LDL"}
    ]}
  ]
}
